Activity calls are given as the source filed them. The calls are words filed in the database; no cut-off is given here.
What was measured:
Salmonella typhimurium [1] = assay: Toxicity in Salmonella Typhimurium T100 at 75 to 300 ug/plate in presence of histidine; assay type: organism-based, Salmonella enterica subsp. enterica serovar Typhimurium
Salmonella typhimurium [2] = assay: Toxicity in Salmonella Typhimurium T98 at 75 to 300 ug/plate in presence of histidine; assay type: organism-based, Salmonella enterica subsp. enterica serovar Typhimurium
Salmonella typhimurium [3] = assay: Antimutagenic activity in Salmonella Typhimurium T98 assessed as inhibition of 2-aminoanthracene-induced mutation at 300 ug/plate; assay type: functional, organism-based; conditions: Salmonella enterica subsp. enterica serovar Typhimurium
Salmonella typhimurium [4] = assay: Antimutagenic activity in Salmonella Typhimurium T98 assessed as inhibition of 2-aminoanthracene-induced mutation at 75 ug/plate; assay type: functional, organism-based; conditions: Salmonella enterica subsp. enterica serovar Typhimurium
Salmonella typhimurium [5] = assay: Antimutagenic activity in Salmonella Typhimurium T98 assessed as inhibition of 2-aminoanthracene-induced mutation at 150 ug/plate; assay type: functional, organism-based; conditions: Salmonella enterica subsp. enterica serovar Typhimurium
Salmonella typhimurium [6] = assay: Antimutagenic activity in Salmonella Typhimurium T100 assessed as inhibition of ethyl methanesulfonate-induced mutation at 32.5 to 300 ug/plate in presence of Ames S9 fractions; assay type: functional, Salmonella enterica subsp. enterica serovar Typhimurium
Salmonella typhimurium [7] = assay: Toxicity in Salmonella Typhimurium T100 at 75 to 600 ug/plate in presence of histidine; assay type: organism-based, Salmonella enterica subsp. enterica serovar Typhimurium
Salmonella typhimurium [8] = assay: Toxicity in Salmonella Typhimurium T98 at 75 to 600 ug/plate in presence of histidine; assay type: organism-based, Salmonella enterica subsp. enterica serovar Typhimurium

Structure (SMILES) | Activity (Salmonella typhimurium [1]) | Activity (Salmonella typhimurium [2]) | Activity (Salmonella typhimurium [3]) | Activity (Salmonella typhimurium [4]) | Activity (Salmonella typhimurium [5]) | inhibition (INH) (Salmonella typhimurium [6]) [%] | Activity (Salmonella typhimurium [7]) | Activity (Salmonella typhimurium [8])
CC1(C)[C@@H](Br)CC[C@]2(C)Oc3cc(Br)c(O)cc3C[C@@H]12 | Non-toxic | Non-toxic | Active | Active | Active |  |  | 
CC1(C)[C@@H](Br)CC[C@@]2(C)Oc3cc(Br)c(O)cc3C[C@@H]12 [CYMOBARBATOL] | Non-toxic | Non-toxic | Active |  | Active | 80 |  | 
CC(C)=CCC/C(C)=C/Cc1cc(O)c(Br)cc1O [CYMOPOL] |  |  |  |  |  |  | Toxic | Toxic
